Results from US10039761B2, “Co-crystals and pharmaceutical compositions comprising the same” (Vertex Pharmaceuticals Incorporated, priority 2013, dated 2018).
“Also recorded” adds a separate entry of the source.

Columns and labels:
[1] = test system: panel of 60 cancer cell lines; experiment: Double combinations in 60 cancer cell line panel (ATPLite, Bliss); type: cell-based; details: 144 hours
Method: The cell-based experiments and assays were performed with either molecule but not always with both. Compounds (1) and (2) were generally very similar in those assays and experiments. Analysis of the combination experiments was performed using two methods: the Bliss Additivity model and the Mixtures Blend method to determine the degree of synergy, additivity, or antagonism. In the Bliss method, a matrix of Bliss scores was generated for each cell line and treatment, and a sum of the Bliss values over the range of combination concentrations tested was calculated. […] Larger average Bliss values indicate greater confidence in reporting synergy, and smaller scores indicate greater confidence in reporting antagonism. In the Mixtures Blend method combinants were added in a range of optimal ratios using design of experiment (DOE) software (DX-8 from STAT-EASE); the cells were irradiated with 2 Gy as required. Synergy was determined using statistical analysis of the data (ANOVA) to indicate linear (additivity) or statistically significant (p<0.1) non-linear (antagonism or synergy) mixes of the combinants. Compound (2) was tested against a panel of 60 cancer cell lines (see Table 16) alone and in combination with a panel of cytotoxic and non-cytotoxic SOC agents. The 60 cancer cell lines represent lines derived from breast cancer, prostate cancer, lung cancer, acute myeloid leukemia (AML), myeloma and other cancers. Cells were removed from liquid nitrogen storage, thawed and expanded in appropriate growth media. Once expanded, cells were seeded in 384-well tissue culture treated plates at 500 cells per well. […] At the end of either 0 hours or 144 hours, cell status was analyzed using ATPLite (Perkin Elmer) to assess the biological response of cells to drug combinations.

[2] = test system: triple-negative breast cancer cell lines; experiment: Doxorubicin/epirubicin combination, all breast cancer lines tested; type: cell-based; details: doxorubicin and Compound (2)
Method: The cell-based experiments and assays were performed with either molecule but not always with both. Compounds (1) and (2) were generally very similar in those assays and experiments. Analysis of the combination experiments was performed using two methods: the Bliss Additivity model and the Mixtures Blend method to determine the degree of synergy, additivity, or antagonism. In the Bliss method, a matrix of Bliss scores was generated for each cell line and treatment, and a sum of the Bliss values over the range of combination concentrations tested was calculated. […] Larger average Bliss values indicate greater confidence in reporting synergy, and smaller scores indicate greater confidence in reporting antagonism. In the Mixtures Blend method combinants were added in a range of optimal ratios using design of experiment (DOE) software (DX-8 from STAT-EASE); the cells were irradiated with 2 Gy as required. Synergy was determined using statistical analysis of the data (ANOVA) to indicate linear (additivity) or statistically significant (p<0.1) non-linear (antagonism or synergy) mixes of the combinants.

[3] = test system: DU4475 breast cancer line; experiment: Doxorubicin or epirubicin combination in DU4475 cells; type: cell-based; details: Doxorubicin or epirubicin in combination with Compound (2)
Method: The cell-based experiments and assays were performed with either molecule but not always with both. […] Analysis of the combination experiments was performed using two methods: the Bliss Additivity model and the Mixtures Blend method to determine the degree of synergy, additivity, or antagonism. In the Bliss method, a matrix of Bliss scores was generated for each cell line and treatment, and a sum of the Bliss values over the range of combination concentrations tested was calculated. […] Larger average Bliss values indicate greater confidence in reporting synergy, and smaller scores indicate greater confidence in reporting antagonism. In the Mixtures Blend method combinants were added in a range of optimal ratios using design of experiment (DOE) software (DX-8 from STAT-EASE); the cells were irradiated with 2 Gy as required. Synergy was determined using statistical analysis of the data (ANOVA) to indicate linear (additivity) or statistically significant (p<0.1) non-linear (antagonism or synergy) mixes of the combinants.

Colo205 = experiment: Combination with genotoxic agents, cell viability (Mixtures Blend); type: cell-based; details: with Cisplatin and 5-FU
Method: (§1) The cell-based experiments and assays were performed with either molecule but not always with both. Compounds (1) and (2) were generally very similar in those assays and experiments. Analysis of the combination experiments was performed using two methods: the Bliss Additivity model and the Mixtures Blend method to determine the degree of synergy, additivity, or antagonism. In the Bliss method, a matrix of Bliss scores was generated for each cell line and treatment, and a sum of the Bliss values over the range of combination concentrations tested was calculated. […] Larger average Bliss values indicate greater confidence in reporting synergy, and smaller scores indicate greater confidence in reporting antagonism. In the Mixtures Blend method combinants were added in a range of optimal ratios using design of experiment (DOE) software (DX-8 from STAT-EASE); the cells were irradiated with 2 Gy as required. Synergy was determined using statistical analysis of the data (ANOVA) to indicate linear (additivity) or statistically significant (p<0.1) non-linear (antagonism or synergy) mixes of the combinants. The following SOC agents were tested in double combinations with Compound (1): etoposide (a topoisomerase inhibitor that induces DSBs), cisplatin (DNA cross-linker), carboplatin (DNA cross-linker), fluorouracil (5-FU, antimetabolite that inhibits thymidylate synthase), paclitaxel (mitotic inhibitor that binds to tubulin), cetuximab (EGFR monoclonal antibody), and radiation. […] These findings were confirmed using the Bliss Additivity model (Table 21). […] While there is not total agreement in the various lines tested, (as detailed in the other sections) the majority agree and the conclusions arrived at are common to each. […] The cancer cell lines in Table 19 indicate: ESO26-gastroesophageal junction cancer, OE19-gastroesophageal junction cancer, […]549-lung cancer, colo205-colon cancer, H460-lung cancer, H2009-lung cancer, FaDu-pharynx cancer, Miapaca2-pancreatic cancer, HFL1-human fetal lung fibroblast.

DMS-53 = experiment: as above; type: cell-based; details: with Cisplatin and Etoposide
Method: as §1

OE19 = experiment: as above; type: cell-based
Method: as §1

HFL1 = experiment: as above; type: cell-based, human
Method: as §1

## [2H]c1nc(C)nc([2H])c1-c1cc(NC[C@@H](C)c2cccc3c(C(=O)NC)ccnc23)ncn1 [Compound (2), (S)-N-methyl-8-(1-((2′-methyl-4′,6′-dideutero-[4,5′-bipyrimidin]-6-yl)amino)propan-2-yl)quinoline-4-carboxamide]
[1]; in combination with bleomycin
  Bliss analysis, combination effect: strong synergy (greater than 10 indicates strong synergy)
[1]; in combination with doxorubicin
  Bliss analysis, combination effect: strong synergy (greater than 10 indicates strong synergy)
[1]; in combination with etoposide
  Bliss analysis, combination effect: strong synergy (greater than 10 indicates strong synergy)
[2]
  shift in IC50 of the combination compared to doxorubicin alone: > 3 fold
[3]
  Bliss analysis, combination effect: strong synergy (greater than 10 indicates strong synergy)

## CNC(=O)c1ccnc2c([C@H](C)CNc3cc(-c4cnc(C)nc4)ncn3)cccc12 [Compound (1), (S)-N-methyl-8-(1-((2′-methyl-[4,5′-bipyrimidin]-6-yl)amino)propan-2-yl)quinoline-4-carboxamide]
Colo205
  Synergy or Antagonism, No Radiation: synergistic; also recorded: Synergy
  Synergy or Antagonism, Plus Radiation (2 Gy): Synergy, Plus
DMS-53
  Synergy or Antagonism, No Radiation: Strong Synergy
OE19; with 5-FU
  Synergy or Antagonism, No Radiation: Additivity
  Synergy or Antagonism, Plus Radiation (2 Gy): Synergy*, Plus
OE19; with Carboplatin
  Synergy or Antagonism, No Radiation: Antagonism
  Synergy or Antagonism, Plus Radiation (2 Gy): Synergy*, Plus
OE19; with Cisplatin and Paclitaxel
  Synergy or Antagonism, No Radiation: Mix
  Synergy or Antagonism, Plus Radiation (2 Gy): Synergy, Plus
HFL1; no agent ticked
  Synergy or Antagonism, No Radiation: Additivity
  Synergy or Antagonism, Plus Radiation (2 Gy): No effect
HFL1; with Cisplatin
  Synergy or Antagonism, No Radiation: Additive
HFL1; with Cisplatin and 5-FU
  Synergy or Antagonism, No Radiation: Additivity
  Synergy or Antagonism, Plus Radiation (2 Gy): Additivity, Plus
HFL1; with Etoposide
  Synergy or Antagonism, No Radiation: Synergy
HFL1; with Paclitaxel
  Synergy or Antagonism, No Radiation: Additivity
